{"source": "patent US4158018A", "about": "“3-Oxa carbinol prostaglandin analogs” (Miles Laboratories, Inc., priority 1978, dated 1979)", "key": {"[1]": {"system": "Gastric Secretion of the Rat", "test": "Effects on gastric secretion of the rat (pylorus ligated)", "assay_type": "in vivo", "conditions": "for Gastric Secretion (value judgement, % decrease in acidity): subcutaneous, 2 x 1.5 mg/kg (total 3.0 mg/kg), 4 hours after pyloric ligation", "procedure": "Evaluation of the Effects of Prostaglandin Analogues on Gastric Secretion of the Rat\nA procedure based on that described by Lipmann (1969) is used to assess the influence of test compound on gastric secretion. Rats of one sex weighing 150 to 200 gm are randomly divided into groups of six animals each and fasted for 48 hours previous to the experiments, water being available ad libitum. The animals are anesthetized with ether, the abdomen opened through a midline incision, and the pylorus ligated. Test compounds are diluted from stock solution so as to administer a dose of 1.5 mg/kg in a volume equivalent to 1 ml/kg. Subcutaneous injections are applied immediately after surgery and again 2 hours later, so that a total dose of 3.0 mg/kg is administered. Dilutions are made with phosphate buffer (pH 7.38) as recommended by Lee et al (1973), in order to insure adequate stability of drugs at the subcutaneous depot. Each compound is tested in one group of rats; an additional control group received only one vehicle.\nFour hours after pyloric ligation the animals are killed with ether, the cardias ligated and the stomachs removed. The volume of gastric secretion is measured and the contents centrifuged at 5000 rpm for 10 minutes. Total acid in the supernatant is titrated against a 0.1 N sodium hydroxide solution and the amount expressed in mEq.\nVolume and total acid values of the treated group are compared with those of the controls by the test. Antisecretory activity is scored according to the following scale: […]"}, "Hypertensive Rat": {"system": "Hypertensive Rat", "test": "Effects on blood pressure in the hypertensive rat (Grollman)", "assay_type": "in vivo", "parameters": "key: 0: Not significant at any time interval; 1: Significant at one time interval; 2: Significant at two time intervals; 3: Significant at three time intervals; 4: Significant at all four time intervals", "conditions": "intraperitoneal, 1 mc/kg; 2, 4, 6 and 8 hours", "procedure": "Evaluation of the Effects of Prostaglandin Analogues on Blood Pressure in the Hypertensive Rat\nThe acute antihypertensive activity of test compounds is determined in rats made hypertensive by the procedure of Grollman (1944). Female rats weighing between 60 and 100 g are anesthetized with ether, the right kidney approached through a flank retroperitoneal incision, decapsulated and tied with a figure-of-eight ligature. The animals are left to recover and two weeks later are again anesthetized and the contralateral kidney removed. Four weeks after the second operation the rats are subjected to indirect blood pressure measurements and those showing systolic pressure values greater than 160 mmHg are selected for drug testing.\nBlood pressure is measured in the tail with an inflatable occluding cuff placed at the base of the extremity and a pulse detector located distally. The cuff is inflated to approximately 300 mmHg and is slowly deflated until pulsations appear, indicating the level of systolic pressure; diastolic pressure is not recorded by this procedure. All measurements are carried out in unanesthetized, unsedated animals maintained in a warm environment during the recording procedure and for at least 6 hours before. In all cases, three pressure readings are obtained in succession and mean values are calculated thereof.\nExperiments are carried out in groups of five hypertensive rats in which systolic pressure is determined immediately before and 2, 4, 6 and 8 hours after the intraperitoneal administration of the test compound at a dose of 1 mc/kg. Drugs are diluted from stock solutions with phosphate buffer (Lee et al, 1973), so as to inject this quantity in a volume of 1 ml/kg. Changes from control blood pressure values are calculated for each interval both in mmHg and in percent and evaluated for significance by means of Wilcoxon's signed rank test (Wilcoxon and Wilcox, 1964)."}, "growth hormone release": {"system": "growth hormone release", "conditions": "rats; cited from earlier work"}, "[2]": {"system": "ovarian progesterone secretion", "conditions": "sheep; cited from earlier work"}, "[3]": {"system": "smooth muscle of the vas deferens", "conditions": "mammalian male reproductive system; cited from earlier work"}, "adrenal glands": {"system": "adrenal glands", "conditions": "hypophysectomized rats; cited from earlier work"}, "blood platelets": {"system": "blood platelets", "conditions": "in vitro; cited from earlier work"}, "thyroid activity": {"system": "thyroid activity", "conditions": "mice; cited from earlier work"}, "gastric secretion": {"system": "gastric secretion", "conditions": "dogs; cited from earlier work"}}}
{"compound": "16,20-methano-oxa-1,11β,15R-trihydroxy- 8,12-bisisoprost-13E-en-9-one [TR-4853]", "values": [{"measurement": "Gastric Secretion (value judgement, % decrease in acidity)", "setting": "[1]", "value": "0 (<26)"}]}
{"compound": "CCCCC(C)(C)[C@H](O)/C=C/[C@H]1[C@H](O)CC(=O)[C@@H]1CCCCOCCO", "note": "(relative stereo) [TR-4616, ±16,16-dimethyl-3-oxa-1,11α,15R and S-trihydroxyprost-13E-en-9-one]", "values": [{"measurement": "inhibition of gastric acid secretion (in words)", "setting": "[1]; rat, in vivo", "value": "inhibit gastric acid secretion"}, {"measurement": "Gastric Secretion (value judgement, % decrease in acidity)", "setting": "[1]", "value": "2 (26-50, significant)"}, {"measurement": "Blood Pressure Hypertensive Rat (value judgement, blood pressure decrease)", "setting": "Hypertensive Rat", "value": 0}]}
{"compound": "CCCCC(C)(C)[C@@H](O)/C=C/[C@H]1[C@H](O)CC(=O)[C@@H]1CCCCOCCO", "note": "(relative stereo) [TR-4617, ±16,16-dimethyl-3-oxa-1,11α,15R and S-trihydroxyprost-13E-en-9-one]", "values": [{"measurement": "Gastric Secretion (value judgement, % decrease in acidity)", "setting": "[1]", "value": "0 (<26)"}, {"measurement": "Blood Pressure Hypertensive Rat (value judgement, blood pressure decrease)", "setting": "Hypertensive Rat", "value": 1}]}
{"compound": "CCCCC[C@H](O)/C=C/[C@H]1[C@H](O)CC(=O)[C@@H]1CCCCCCC(=O)O", "note": "[PGE1, prostaglandin E1]", "values": [{"measurement": "release of growth hormone", "setting": "growth hormone release", "value": "increases the release of growth hormone"}, {"measurement": "ovarian progesterone secretion", "setting": "[2]", "value": "inhibit ovarian progesterone secretion"}, {"measurement": "contraction of smooth muscle of the vas deferens", "setting": "[3]", "value": "contracts the smooth muscle of the vas deferens"}, {"measurement": "stereodogenesis in the adrenal glands", "setting": "adrenal glands", "value": "stimulate stereodogenesis in the adrenal glands"}, {"measurement": "aggregation of blood platelets", "setting": "blood platelets", "value": "inhibits aggregation of blood platelets in vitro"}, {"measurement": "thyroid activity", "setting": "thyroid activity", "value": "increase thyroid activity"}, {"measurement": "gastric secretion", "setting": "gastric secretion", "value": "inhibits gastric secretion"}]}
{"compound": "CCCCC[C@H](O)/C=C/[C@H]1[C@H](CCCCOCCO)C(=O)C[C@@H]1O", "note": "[TR-4649, 3-oxa-1,11β,15S-trihydroxy-8,12-bisisoprost-13E-en-9-one]", "values": [{"measurement": "Gastric Secretion (value judgement, % decrease in acidity)", "setting": "[1]", "value": "0 (<26)"}]}
{"compound": "CCCCC[C@H](O)/C=C/[C@H]1[C@H](O)CC(=O)[C@@H]1CCCCOCCO", "note": "[TR-4650, 3-oxa-1,11α,15S-trihydroxyprost-13E-en-9-one]", "values": [{"measurement": "Gastric Secretion (value judgement, % decrease in acidity)", "setting": "[1]", "value": "0 (<26)"}, {"measurement": "Blood Pressure Hypertensive Rat (value judgement, blood pressure decrease)", "setting": "Hypertensive Rat", "value": 1}]}
{"compound": "O=C1CC(O)C(/C=C/[C@H](O)C2CCCCC2)C1CCCCOCCO", "note": "(stereo partly drawn) [TR-4856, 16,20-methano-3-oxa-1,11α,15R-trihydroxyprost-13E-en-9-one]", "values": [{"measurement": "Gastric Secretion (value judgement, % decrease in acidity)", "setting": "[1]", "value": "0 (<26)"}, {"measurement": "Blood Pressure Hypertensive Rat (value judgement, blood pressure decrease)", "setting": "Hypertensive Rat", "value": 2}]}
